Laboratory results taken from paper PMC10861593, “Kisspeptin-10 binding to Gpr54 in osteoclasts prevents bone loss by activating Dusp18-mediated dephosphorylation of Src” (Nature Communications, 2024).
Where a chain is given by its changes, count along the chain named. Names may count otherwise.

B1: mouse Gpr54^336–342 peptide (peptide, UniProt Q91V45 336-342, looked up)
peptide: RVCPCCR
notes: mouse Gpr54 (Kiss1 receptor), residues 336-342, said to correspond to the RxxPxxR motif; also called peptide of Gpr54^336–342 (RxxPxxR motif); source: synthetic peptide
B2: His-DUSP18 (enzyme, human, UniProt Q8NEJ0 1-188, looked up)
chain: MTAPSCAFPVQFRQPSVSGLSQITKSLYISNGVAANNKLMLSSNQITMVINVSVEVVNTLYEDIQYMQVPVADSPNSRLCDFFDPIADHIHSVEMKQGRTLLHCAAGVSRSAALCLAYLMKYHAMSLLDAHTWTKSCRPIIRPNSGFWEQLIHYEFQLFGKNTVHMVSSPVGMIPDIYEKEVRLMIPL
notes: full-length WT human DUSP18, in pMCSG7; In the SPR it is called 'DUSP18 protein'; removal of the tag is not mentioned; also called DUSP18 protein; WT-DUSP18; source: E. coli, purified; not shown: His, N-terminal, kept
B3: DUSP18 (C104S): enzymatically dead DUSP18 (C104S) mutant (protein)
chain: B2 chain with C104S
modifications: left off: Flag, C-terminal, kept
notes: enzymatically dead DUSP18 (C104S) mutant

Legend:
[1] = test system: GPR54 / Src interaction; test: Co-IP: interaction of GPR54 with Src in transfected 293T cells; type: cell-based, human; settings: inhibitor 1 h (U73122 10 µM, Staurosporine 0.25 µM, LY3214996 10 µM, KN-93 10 µM, Saracatinib 10 µM), then 10 nM Kp-10 20 min
Experimental: (§1) Data represent means ± SEM. P values were determined by one-way ANOVA analysis (b, c, e, g, i, k). Representative results were obtained from at least three independent experiments. Source data are provided as a Source Data file.
(§2) Whole-cell proteins were extracted using 1x RIPA buffer (25 mM Tris, pH7.5, 150 mM NaCl, 0.5% Sodium deoxycholate, 1% Triton-X-100) supplemented with protease inhibitors (Complete Mini, Roche) and phosphatase inhibitors (phosphatase inhibitor cocktail set I and II, Calbiochem). Immunoprecipitation and immunoblotting with indicated antibodies were performed as described in Supplementary Table 1. Image Jsoftware (V1.52) was used for quantification analysis. Uncropped and unprocessed blots are presented in the Supplementary Information file.
Error bars are ± SEM. […] Source data are provided as a Source Data file.

[2] = test system: Dusp18 expression; test: qPCR of Dusp18 mRNA in RAW264.7 cells; type: cell-based, mouse; settings: U73122 10 µM, Staurosporine 0.25 µM, LY3214996 20 µM, SB203580 10 µM for 1 h, then Kp-10 30 min
Text: Anti-Flag IP of lysates derived from 293 T cells transfected with GPR54-flag and Src-HA constructs (d) and quantification results (e). Anti-Flag IP of lysates derived from 293 T cells transfected with GPR54-flag and DUSP18-HA constructs (f) and quantification results (g). Anti-Flag IP of lysates derived from 293 T cells transfected with Src-HA, and DUSP18-flag constructs (h) and quantification results (i). j, k IB analysis of lysates derived from WT BMMs and Gq/11 KO BMMs with or without Kp-10 treatment for 1 h (j) and quantification of results (k). l Working model of Kp-10 /Gpr54 mediated Src dephosphorylation. […] However, both active Src and DUSP18 were recruited by GPR54 through the PR motif in GPR54 CT along with the increase of Kp-10 dose (1, 10 nM). […] Data represent means ± SEM. P values were determined by one-way ANOVA analysis (b, c, e, g, i, k). Representative results were obtained from at least three independent experiments. Source data are provided as a Source Data file.
Total RNA was extracted from RAW264.7 cells using TRIzol® (TaKaRa) and then reverse transcribed into cDNA using the PrimeScript RT-PCR Kit (TaKaRa, RR014) according to the manufacturer’s instructions. The cDNA products were used for quantitative PCR analysis by SYBR Mix (TaKaRa, RR064). Sequences of the indicated primers are described in Supplementary Table 2.

[3] = test system: DUSP18 / GPR54 interaction; test: Co-IP: interaction of DUSP18 with GPR54 in transfected 293T cells; type: cell-based, human; settings: 293T; inhibitor 1 h (U73122 10 µM, Staurosporine 0.25 µM, LY3214996 10 µM, KN-93 10 µM, Saracatinib 10 µM), then 10 nM Kp-10 20 min
Experimental: as §1, §2
Supplementary Fig. 6 a, b IB and quantification of protein levels analysis. […] Error bars are ± SEM. P-values were determined by two-tailed Student’s t-test (b, e) or by one-way ANOVA analysis (h, j). *P <0.05, **P <0.01, ***P <0.001, ****P <0.0001. Representative results were observed from at least three independent experiments. Source data are provided as a Source Data file.

[4] = test system: Src / DUSP18 interaction; test: Co-IP/IB: interaction of Src with DUSP18 in transfected 293T cells; type: cell-based
Experimental: Anti-Flag IP derived from 293 T cells transfected with HA-Src and either DUSP18-Flag or DUSP18 (C104S)-Flag constructs with or without Kp-10 treatment for 20 min were lysed and subjected to anti-FLAG IP (b). Phosphatase reaction products using His-DUSP18 and His-DUSP18 (C104S) proteins purified from E. coli and SRC proteins purified from Sf9 insect cells (c) and quantification of protein levels (d). Anti-Src IP derived from RAW264.7 cells treated with or without Kp-10 treatment for 20 min were lysed and subjected to anti-Src IP (e) and quantification of protein levels (f). g, h Src and Dusp18 co-localization was analyzed by IF staining in primary pre-osteoclasts treated with 10 nM Kp-10 treatment for 20 min. Representative images of endogenous Dusp18 and Src were shown by TIRF microscopy (g), and MOC was used to quantify the degree of colocalization in cells from multiple images taken randomly (h). Scale bar, 50 µm. i–m IB and quantification of protein levels analysis. Anti-Flag IP derived from 293 T cells transfected with HA-Src, GPR54-myc, and either DUSP18-Flag or DUSP18 (C104S)-Flag constructs after Kp-10 treatment for 20 min (i) and quantification of protein levels (j, k). […] Scale bars, 125 µm (n), and pits depth were quantified by confocal microscopy (o). […] P values were determined by one-way ANOVA analysis (d, f, j, k, m, o) or by two-tailed Student’s t-test (h). […]

[5] = test system: SH3 domain of Src; test: SH3 domain protein-binding array; settings: TranSignal SH3 Domain Array, GST-GPR54 CT overnight at 4 °C
Experimental: SH3 domain protein-binding array was performed using TranSignal™ SH3 Domain Array kit (Cat. #MA3010). The kit was purchased from Panomics, and probed using GST-GPR54 CT. Purified different SH3 domain-containing proteins including the Src kinase family were spotted in duplicate on the membrane filter and tested for their binding to GST-GPR54 CT. Briefly, membrane filters were incubated with […] GST-GPR54 CT protein overnight at 4 °C. After washing the membrane, the GST antibody was incubated overnight at 4 °C. Protein binding was visualized by incubation with an HRP-conjugated antibody. Spots with stronger intensities indicated a higher binding affinity of GST-GPR54 CT with the SH3 domain-containing protein (s). SH3 domain proteins in the array were summarized in Supplementary Table 3.

[6] = biological target: B2; test: SPR; Biacore T200, DUSP18 protein immobilised on CM5 by amine coupling (25 ug/mL, pH 7.4, PBS); 25 °C, 30 µl/minute, PBS with 0.05% Tween-20; kinetics analysis, 1:1 model; settings: both partners purified
[7] = biological target: T1, His-SRC protein, Src (G85-L536) (human, UniProt P12931 85-536); test: SPR; Biacore T200, DUSP18 and Src; which of the two was immobilised is not told; 25 °C, 30 µl/minute, PBS with 0.05% Tween-20; kinetics analysis, 1:1 model; settings: both partners purified
T1 construct: human Src, G85-L536, in pFastBac HT B; In the SPR it is called 'SRC protein'; removal of the tag is not mentioned; source: Sf9 (Bac-to-Bac baculovirus), purified; not shown: His6, N-terminal, kept

[8] = test system: Src (Y416); test: in vitro phosphatase activity assay with Src; type: biochemical, human; settings: purified proteins; 30 min at 30 °C; Western blot
Experimental: The C terminus of human GPR54 (H329- L398) and mouse Gpr54 (R331- L396) cDNAs were subcloned into a pGEX-4T2 vector. For purification of full-length WT human DUSP18 and DUSP18 (C104S) proteins, DUSP18 was cloned into pMCSG7 vector. For purification of Src (G85-L536) protein, cDNAs of human Src were subcloned into pFastBac HT B vector with an N-terminal 6xHis tag and expressed in Sf9 cells (Expression Systems) using the Bac-to-Bac Baculovirus Expression System (Invitrogen) for 48 h. For purification of the Src (G85-V247)-GPR54 (333–356 with C338S, C340S mutation) recombinant fusion protein, the C-terminus of GPR54 (333–356 with C338S and C340S mutation) was linked to the C terminus of Src SH3-SH2 domain (G85-V247), which was subcloned into the pMCSG7 vector.
For the total phosphatase activity assay, the Co-IP experiment was carried out after Kp-10 treatment of RAW264.7 cells for 20 min, followed by lysis and incubation with the Gpr54 antibody. The assay was performed according to the phosphatase assay kit (Sigma-Aldrich,17-313). For the DUSP18 phosphatase activity assay, His-DUSP18 and His-DUSP18 (C104S) were purified from E Coli, and His-Src was purified from Sf9 insect cells. His-DUSP18 and His-DUSP18 (C104S) were incubated with His-Src in 1x phosphatase buffer (20 mM HEPES, 20 mM MgCl2, 0.03% β-mercaptoethanol)[51] for 30 min at 30 °C with gentle shaking. […]

Molecule: CN[C@@H]1C[C@H]2O[C@@](C)([C@@H]1OC)n1c3ccccc3c3c4c(c5c6ccccc6n2c5c31)C(=O)NC4 [Staurosporine]
- effect on Kp-10 induced interaction of GPR54 with Src [1]: not by the inhibitors
- expression of Dusp18 (mRNA) [2]: inhibited

Molecule: Cn1nccc1Nc1nccc(-c2cc3c(s2)C(C)(C)N(CCN2CCOCC2)C3=O)n1 [LY3214996]
- effect on Kp-10 induced interaction of GPR54 with Src [1]: not by the inhibitors
- expression of Dusp18 (mRNA) [2]: inhibited

Molecule: CN1CCN(CCOc2cc(OC3CCOCC3)c3c(Nc4c(Cl)ccc5c4OCO5)ncnc3c2)CC1 [Saracatinib]
- effect on Kp-10 induced interaction of GPR54 with Src [1]: obvioulsly dampened
- effect on Kp-10 induced interaction of GPR54 with DUSP18 [3]: obvioulsly dampened
- effect on Kp-10 induced interaction of Src with DUSP18 ([4]; 293T, inhibitor 1 h (U73122 10 µM, Staurosporine 0.25 µM, LY3214996 10 µM, KN-93 10 µM, Saracatinib 10 µM), then 10 nM Kp-10 20 min): obvioulsly dampened

Molecule: GPR54 CT: C terminus of human GPR54 (H329- L398)
- interaction with SH3 domains [5]: interacted with the SH3 domain of Src most obviously

Molecule: B1
- Kd [6]: 1800 nM

Molecule: B2
- Kd [7]: 5.9 nM

Molecule: B3
- interaction with Src by Co-IP ([4]; anti-Flag IP, 293T cells transfected with HA-Src): eliminated the interaction with Src
- dephosphorylation of Src (Y416) [8]: had no activity
